In US9340590B2 (priority 2011, dated 2016):
Positions of bridges follow the written chain, without caps; N, C: chain ends. Non-standard residues stand in square brackets, D forms with d. Residues, ends and D or L forms follow the SMILES beside them. 1Nal = N[C@@H](Cc1cccc2ccccc12)C(=O)O

Legend:
Assay in all cases: cell-based
[1] = target: hNav1.5 (Homo sapiens, UniProt Q14524); settings: IonWorks Quattro, use-dependent block, hNav1.5; read-out: IWQ Use Nav1.5
[2] = target: hNav1.3 (Homo sapiens, UniProt Q9NY46); settings: IonWorks Quattro, use-dependent block, hNav1.3; read-out: IWQ Use Nav1.3
[3] = target: hNav1.7 (Homo sapiens, UniProt Q15858); assay type: cell-based; settings: IonWorks Quattro, use-dependent block, hNav1.7; read-out: IWQ Use Nav1.7
Sequence of hNav1.7 (Q15858 whole entry, looked up): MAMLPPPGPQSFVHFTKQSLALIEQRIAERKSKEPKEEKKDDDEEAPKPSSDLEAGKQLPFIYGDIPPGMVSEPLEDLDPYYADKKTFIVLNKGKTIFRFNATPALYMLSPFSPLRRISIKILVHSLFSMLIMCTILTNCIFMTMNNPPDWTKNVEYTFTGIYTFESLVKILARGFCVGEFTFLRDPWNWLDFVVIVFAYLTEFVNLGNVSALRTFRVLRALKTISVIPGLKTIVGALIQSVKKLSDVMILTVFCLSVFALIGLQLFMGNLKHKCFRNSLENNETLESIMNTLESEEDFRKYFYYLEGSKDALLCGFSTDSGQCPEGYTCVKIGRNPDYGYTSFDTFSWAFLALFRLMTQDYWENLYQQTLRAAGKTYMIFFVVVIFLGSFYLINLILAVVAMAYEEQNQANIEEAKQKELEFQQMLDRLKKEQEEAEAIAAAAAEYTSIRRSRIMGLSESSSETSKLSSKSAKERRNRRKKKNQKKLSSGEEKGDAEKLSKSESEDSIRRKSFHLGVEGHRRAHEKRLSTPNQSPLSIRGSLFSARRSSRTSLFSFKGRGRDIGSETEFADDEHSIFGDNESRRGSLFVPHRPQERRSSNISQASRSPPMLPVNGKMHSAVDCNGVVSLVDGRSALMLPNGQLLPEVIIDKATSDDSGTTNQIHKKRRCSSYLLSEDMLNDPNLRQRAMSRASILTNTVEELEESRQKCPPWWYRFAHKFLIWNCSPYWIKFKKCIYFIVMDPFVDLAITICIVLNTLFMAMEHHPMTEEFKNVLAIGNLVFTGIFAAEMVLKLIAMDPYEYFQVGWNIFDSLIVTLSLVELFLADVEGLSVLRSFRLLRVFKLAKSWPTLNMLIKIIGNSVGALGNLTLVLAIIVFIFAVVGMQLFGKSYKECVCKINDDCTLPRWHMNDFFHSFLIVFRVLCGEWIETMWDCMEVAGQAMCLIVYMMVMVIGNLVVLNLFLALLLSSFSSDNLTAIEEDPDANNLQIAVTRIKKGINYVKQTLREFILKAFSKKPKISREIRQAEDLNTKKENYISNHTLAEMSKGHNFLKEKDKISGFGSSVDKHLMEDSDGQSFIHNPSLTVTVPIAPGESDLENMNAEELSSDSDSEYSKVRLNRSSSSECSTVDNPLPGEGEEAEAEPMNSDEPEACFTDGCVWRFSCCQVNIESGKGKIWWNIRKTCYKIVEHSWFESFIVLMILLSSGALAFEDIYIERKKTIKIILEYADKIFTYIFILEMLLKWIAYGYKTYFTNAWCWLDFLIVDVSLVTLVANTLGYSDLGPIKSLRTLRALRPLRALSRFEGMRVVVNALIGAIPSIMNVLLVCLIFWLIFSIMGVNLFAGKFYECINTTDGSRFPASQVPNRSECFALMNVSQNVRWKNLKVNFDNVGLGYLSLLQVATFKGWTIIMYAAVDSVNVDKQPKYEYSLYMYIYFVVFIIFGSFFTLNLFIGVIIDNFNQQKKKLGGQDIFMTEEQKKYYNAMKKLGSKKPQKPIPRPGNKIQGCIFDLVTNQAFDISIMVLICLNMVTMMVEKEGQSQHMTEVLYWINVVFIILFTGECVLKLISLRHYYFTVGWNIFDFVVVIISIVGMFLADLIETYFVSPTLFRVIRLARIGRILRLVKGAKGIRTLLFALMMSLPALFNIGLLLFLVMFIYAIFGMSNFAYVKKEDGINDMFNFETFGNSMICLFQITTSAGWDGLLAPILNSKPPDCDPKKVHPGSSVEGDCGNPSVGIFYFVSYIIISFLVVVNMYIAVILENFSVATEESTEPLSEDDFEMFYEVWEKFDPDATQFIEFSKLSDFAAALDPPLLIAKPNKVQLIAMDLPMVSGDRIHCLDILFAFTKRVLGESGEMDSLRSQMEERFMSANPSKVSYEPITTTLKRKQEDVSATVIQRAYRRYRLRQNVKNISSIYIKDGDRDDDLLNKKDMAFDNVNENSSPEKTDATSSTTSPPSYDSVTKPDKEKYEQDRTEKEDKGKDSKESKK

Sequence of hNav1.3 (Q9NY46 whole entry, looked up): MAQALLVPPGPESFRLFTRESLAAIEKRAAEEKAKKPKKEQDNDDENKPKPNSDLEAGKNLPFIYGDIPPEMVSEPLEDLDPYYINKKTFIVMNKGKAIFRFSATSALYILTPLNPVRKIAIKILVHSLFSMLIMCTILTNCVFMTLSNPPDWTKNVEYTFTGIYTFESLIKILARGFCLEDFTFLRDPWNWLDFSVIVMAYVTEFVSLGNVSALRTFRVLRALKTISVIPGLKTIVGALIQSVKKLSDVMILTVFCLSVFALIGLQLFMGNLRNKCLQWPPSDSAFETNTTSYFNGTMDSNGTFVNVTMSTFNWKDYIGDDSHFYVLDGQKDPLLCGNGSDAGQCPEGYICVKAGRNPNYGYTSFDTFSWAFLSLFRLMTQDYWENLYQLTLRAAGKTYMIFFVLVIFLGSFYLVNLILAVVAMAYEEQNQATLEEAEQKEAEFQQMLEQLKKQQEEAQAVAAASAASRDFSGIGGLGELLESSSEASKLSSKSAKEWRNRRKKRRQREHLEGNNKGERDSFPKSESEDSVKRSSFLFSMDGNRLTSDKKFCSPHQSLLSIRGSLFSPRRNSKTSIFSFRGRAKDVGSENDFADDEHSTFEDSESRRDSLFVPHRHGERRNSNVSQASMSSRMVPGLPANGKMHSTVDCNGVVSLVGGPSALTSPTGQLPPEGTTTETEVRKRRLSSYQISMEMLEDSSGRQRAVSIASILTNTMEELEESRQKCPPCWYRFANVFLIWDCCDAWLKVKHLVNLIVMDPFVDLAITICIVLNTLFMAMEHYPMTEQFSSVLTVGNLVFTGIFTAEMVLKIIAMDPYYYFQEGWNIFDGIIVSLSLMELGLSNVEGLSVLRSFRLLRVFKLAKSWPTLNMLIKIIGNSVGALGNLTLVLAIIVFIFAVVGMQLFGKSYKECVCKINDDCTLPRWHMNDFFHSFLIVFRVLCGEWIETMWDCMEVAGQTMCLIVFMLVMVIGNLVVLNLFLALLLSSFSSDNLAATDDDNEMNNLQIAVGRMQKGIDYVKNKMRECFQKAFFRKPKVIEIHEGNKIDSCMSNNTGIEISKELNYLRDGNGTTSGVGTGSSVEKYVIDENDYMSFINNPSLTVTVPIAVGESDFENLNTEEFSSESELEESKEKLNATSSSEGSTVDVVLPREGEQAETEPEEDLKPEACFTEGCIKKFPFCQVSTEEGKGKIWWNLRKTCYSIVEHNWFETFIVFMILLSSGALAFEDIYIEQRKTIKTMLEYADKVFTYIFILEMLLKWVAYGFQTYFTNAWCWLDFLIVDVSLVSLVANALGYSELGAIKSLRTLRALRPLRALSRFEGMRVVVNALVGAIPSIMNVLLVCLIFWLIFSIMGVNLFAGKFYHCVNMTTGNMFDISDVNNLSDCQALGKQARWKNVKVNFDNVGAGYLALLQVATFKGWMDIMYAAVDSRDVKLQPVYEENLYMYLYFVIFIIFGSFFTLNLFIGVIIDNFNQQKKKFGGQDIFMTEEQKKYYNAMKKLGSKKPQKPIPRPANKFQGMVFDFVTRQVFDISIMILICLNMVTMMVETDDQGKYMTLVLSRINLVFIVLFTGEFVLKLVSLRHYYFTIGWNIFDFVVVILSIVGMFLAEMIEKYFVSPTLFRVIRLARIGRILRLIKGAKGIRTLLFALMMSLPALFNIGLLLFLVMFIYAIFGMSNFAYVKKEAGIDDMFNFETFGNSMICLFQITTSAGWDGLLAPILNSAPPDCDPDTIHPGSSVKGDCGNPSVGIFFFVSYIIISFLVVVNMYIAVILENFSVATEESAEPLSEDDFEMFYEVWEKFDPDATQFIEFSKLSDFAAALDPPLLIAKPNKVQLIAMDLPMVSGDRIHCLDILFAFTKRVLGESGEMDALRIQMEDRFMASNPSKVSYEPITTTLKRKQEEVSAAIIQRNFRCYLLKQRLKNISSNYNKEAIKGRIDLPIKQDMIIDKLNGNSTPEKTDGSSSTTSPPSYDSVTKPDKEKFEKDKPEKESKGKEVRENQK

SMILES: CC[C@H](C)[C@@H]1NC(=O)[C@@H]2CSSC[C@@H]3NC(=O)[C@H](C(C)C)NC(=O)[C@H](CC(C)C)NC(=O)[C@H](CC(N)=O)NC(=O)[C@@H]4CCCN4C(=O)[C@H](CCCNC(=N)N)NC(=O)[C@H](CSSC[C@H](NC(=O)[C@@H](N)CC(=O)O)C(=O)N[C@@H](CC(C)C)C(=O)NCC(=O)N[C@@H](Cc4ccccc4)C(=O)N[C@@H](CCSC)C(=O)N[C@@H](CCCNC(=N)N)C(=O)N[C@@H](CCCCN)C(=O)N2)NC(=O)[C@H](CSSC[C@@H](C(=O)N[C@@H](CCCCN)C(=O)N[C@@H](Cc2c[nH]c4ccccc24)C(=O)N[C@@H](Cc2c[nH]c4ccccc24)C(=O)N[C@@H](Cc2ccccc2)C(N)=O)NC(=O)[C@H](Cc2c[nH]c4ccccc24)NC(=O)[C@H](CCCCN)NC(=O)[C@H](Cc2c[nH]cn2)NC(=O)[C@H]([C@@H](C)O)NC(=O)[C@H](CCCNC(=N)N)NC(=O)[C@H](CO)NC3=O)NC(=O)[C@H](CCCCN)NC(=O)[C@H](CC(=O)O)NC(=O)[C@H](CC(N)=O)NC(=O)[C@H](CC(=O)O)NC(=O)[C@@H]2CCCN2C1=O [compound 450] (H-DCLGFMRKCIPDNDKCCRPNLVCSRTHKWCKWWF-NH2; disulfide 2-17, 9-23, 16-30)
- IC50 [1]: 11500 nM
- IC50 [2]: 30 nM
- IC50 [3]: 50 nM

SMILES: CSCC[C@@H]1NC(=O)[C@H](Cc2ccccc2)NC(=O)CNC(=O)[C@H](CC(C)C)NC(=O)[C@@H](NC(=O)[C@@H](N)CC(=O)O)CSSC[C@@H]2NC(=O)[C@@H]3CSSC[C@@H](C(=O)N[C@@H](CCCCN)C(=O)N[C@@H](Cc4cccc5ccccc45)C(=O)N[C@H](C(=O)N[C@@H](Cc4ccccc4)C(N)=O)C(C)C)NC(=O)[C@H](Cc4c[nH]c5ccccc45)NC(=O)[C@H](CCCCN)NC(=O)[C@H](Cc4c[nH]cn4)NC(=O)[C@H]([C@@H](C)O)NC(=O)[C@H](CCCNC(=N)N)NC(=O)[C@H](CO)NC(=O)[C@H](CSSC[C@H](NC(=O)[C@H](CCCCN)NC(=O)[C@H](CCCNC(=N)N)NC1=O)C(=O)N[C@@H](Cc1cccc4ccccc14)C(=O)N1CCC[C@H]1C(=O)N[C@@H](CC(=O)O)C(=O)N[C@@H](CC(N)=O)C(=O)N[C@@H](CC(=O)O)C(=O)N[C@@H](CCCCN)C(=O)N3)NC(=O)[C@H](C(C)C)NC(=O)[C@H](CC(C)C)NC(=O)[C@H](CC(N)=O)NC(=O)[C@@H]1CCCN1C(=O)[C@H](CCCNC(=N)N)NC2=O [compound 452]
- IC50 [1]: > 5000 nM
- IC50 [2]: 3 nM
- IC50 [3]: 5 nM

SMILES: CC[C@H](C)[C@@H]1NC(=O)[C@@H]2CSSC[C@@H]3NC(=O)[C@H](C(C)C)NC(=O)[C@H](CC(C)C)NC(=O)[C@H](CC(N)=O)NC(=O)[C@@H]4CCCN4C(=O)[C@H](CCCNC(=N)N)NC(=O)[C@H](CSSC[C@H](NC(=O)[C@@H](N)CC(=O)O)C(=O)N[C@@H](CC(C)C)C(=O)NCC(=O)N[C@@H](Cc4ccccc4)C(=O)N[C@@H](CCSC)C(=O)N[C@@H](CCCNC(=N)N)C(=O)N[C@@H](CCCCN)C(=O)N2)NC(=O)[C@H](CSSC[C@@H](C(=O)N[C@@H](CCCCN)C(=O)N[C@@H](Cc2cccc4ccccc24)C(=O)N[C@H](C(=O)N[C@@H](Cc2ccccc2)C(N)=O)C(C)C)NC(=O)[C@H](Cc2c[nH]c4ccccc24)NC(=O)[C@H](CCCCN)NC(=O)[C@H](Cc2c[nH]cn2)NC(=O)[C@H](CC(C)C)NC(=O)[C@H](CCCNC(=N)N)NC(=O)[C@H](CO)NC3=O)NC(=O)[C@H](CCCCN)NC(=O)[C@H](CC(=O)O)NC(=O)[C@H](CC(N)=O)NC(=O)[C@H](CC(=O)O)NC(=O)[C@@H]2CCCN2C1=O [compound 453] (H-DCLGFMRKCIPDNDKCCRPNLVCSRLHKWCK[1Nal]VF-NH2; disulfide 2-17, 9-23, 16-30)
- IC50 [1]: > 5000 nM
- IC50 [2]: 10 nM
- IC50 [3]: 10 nM

SMILES: CC[C@H](C)[C@@H]1NC(=O)[C@@H]2CSSC[C@@H]3NC(=O)[C@H](C(C)C)NC(=O)[C@H](CC(C)C)NC(=O)[C@H](CC(N)=O)NC(=O)[C@@H]4CCCN4C(=O)[C@H](CCCNC(=N)N)NC(=O)[C@H](CSSC[C@H](NC(=O)[C@@H](N)CC(=O)O)C(=O)N[C@@H](CC(C)C)C(=O)NCC(=O)N[C@@H](Cc4ccccc4)C(=O)N[C@@H](CCSC)C(=O)N[C@@H](CCCNC(=N)N)C(=O)N[C@@H](CCCCN)C(=O)N2)NC(=O)[C@H](CSSC[C@@H](C(=O)N[C@@H](CCCCN)C(=O)N[C@@H](Cc2c[nH]c4ccccc24)C(=O)N[C@@H](Cc2cccc4ccccc24)C(=O)N[C@@H](Cc2ccccc2)C(N)=O)NC(=O)[C@H](Cc2c[nH]c4ccccc24)NC(=O)[C@H](CCCCN)NC(=O)[C@H](Cc2c[nH]cn2)NC(=O)[C@H]([C@@H](C)O)NC(=O)[C@H](CCCNC(=N)N)NC(=O)[C@H](CO)NC3=O)NC(=O)[C@H](CCCCN)NC(=O)[C@H](CC(=O)O)NC(=O)[C@H](CC(N)=O)NC(=O)[C@H](CC(=O)O)NC(=O)[C@@H]2CCCN2C1=O [compound 455] (H-DCLGFMRKCIPDNDKCCRPNLVCSRTHKWCKW[1Nal]F-NH2; disulfide 2-17, 9-23, 16-30)
- IC50 [1]: > 5000 nM
- IC50 [2]: 40 nM
- IC50 [3]: 20 nM

SMILES: CC[C@H](C)[C@@H]1NC(=O)[C@@H]2CSSC[C@@H]3NC(=O)[C@H](C(C)C)NC(=O)[C@H](CC(C)C)NC(=O)[C@H](CC(N)=O)NC(=O)[C@@H]4CCCN4C(=O)[C@H](CCCNC(=N)N)NC(=O)[C@H](CSSC[C@H](NC(=O)[C@@H](N)CC(=O)O)C(=O)N[C@@H](CC(C)C)C(=O)NCC(=O)N[C@@H](Cc4ccccc4)C(=O)N[C@@H](Cc4c[nH]c5ccccc45)C(=O)N[C@@H](CCCNC(=N)N)C(=O)N[C@@H](CCCCN)C(=O)N2)NC(=O)[C@H](CSSC[C@@H](C(=O)N[C@@H](CCCCN)C(=O)N[C@@H](Cc2ccc(O)cc2)C(=O)N[C@H](C(=O)N[C@@H](Cc2ccccc2)C(N)=O)C(C)C)NC(=O)[C@H](Cc2c[nH]c4ccccc24)NC(=O)[C@H](CCCCN)NC(=O)[C@H](Cc2c[nH]cn2)NC(=O)[C@H](CC(C)C)NC(=O)[C@H](CCCNC(=N)N)NC(=O)[C@H](CO)NC3=O)NC(=O)[C@H](CCCCN)NC(=O)[C@H](CC(=O)O)NC(=O)[C@H](CC(N)=O)NC(=O)[C@H](CC(=O)O)NC(=O)[C@@H]2CCCN2C1=O [compound 456] (H-DCLGFWRKCIPDNDKCCRPNLVCSRLHKWCKYVF-NH2; disulfide 2-17, 9-23, 16-30)
- IC50 [1]: > 5000 nM
- IC50 [2]: 10 nM
- IC50 [3]: 30 nM

SMILES: CC[C@H](C)[C@@H]1NC(=O)[C@@H]2CSSC[C@@H]3NC(=O)[C@H](C(C)C)NC(=O)[C@H](CC(C)C)NC(=O)[C@H](CC(N)=O)NC(=O)[C@@H]4CCCN4C(=O)[C@H](CCCNC(=N)N)NC(=O)[C@H](CSSC[C@H](NC(=O)[C@@H](N)CC(=O)O)C(=O)N[C@@H](CC(C)C)C(=O)NCC(=O)N[C@@H](Cc4ccccc4)C(=O)N[C@@H](CCSC)C(=O)N[C@@H](CCCNC(=N)N)C(=O)N[C@@H](CCCCN)C(=O)N2)NC(=O)[C@H](CSSC[C@@H](C(=O)N[C@@H](CCCCN)C(=O)N[C@@H](Cc2cccc4ccccc24)C(=O)N[C@@H](Cc2c[nH]c4ccccc24)C(=O)N[C@@H](Cc2ccccc2)C(N)=O)NC(=O)[C@H](Cc2c[nH]c4ccccc24)NC(=O)[C@H](CCCCN)NC(=O)[C@H](Cc2c[nH]cn2)NC(=O)[C@H]([C@@H](C)O)NC(=O)[C@H](CCCNC(=N)N)NC(=O)[C@H](CO)NC3=O)NC(=O)[C@H](CCCCN)NC(=O)[C@H](CC(=O)O)NC(=O)[C@H](CC(N)=O)NC(=O)[C@H](CC(=O)O)NC(=O)[C@@H]2CCCN2C1=O [compound 460] (H-DCLGFMRKCIPDNDKCCRPNLVCSRTHKWCK[1Nal]WF-NH2; disulfide 2-17, 9-23, 16-30)
- IC50 [1]: > 5000 nM
- IC50 [2]: 30 nM
- IC50 [3]: 80 nM

SMILES: CC[C@H](C)[C@@H]1NC(=O)[C@@H]2CSSC[C@@H]3NC(=O)[C@H](C(C)C)NC(=O)[C@H](CC(C)C)NC(=O)[C@H](CC(N)=O)NC(=O)[C@@H]4CCCN4C(=O)[C@H](CCCNC(=N)N)NC(=O)[C@H](CSSC[C@H](NC(=O)[C@@H](N)CC(=O)O)C(=O)N[C@@H](CC(C)C)C(=O)NCC(=O)N[C@@H](Cc4ccccc4)C(=O)N[C@@H](Cc4c[nH]c5ccccc45)C(=O)N[C@@H](CCCNC(=N)N)C(=O)N[C@@H](CCCCN)C(=O)N2)NC(=O)[C@H](CSSC[C@@H](C(=O)N[C@@H](CCCCN)C(=O)N[C@@H](Cc2ccc(O)cc2)C(=O)N[C@@H](Cc2cccc4ccccc24)C(=O)N[C@@H](Cc2ccccc2)C(N)=O)NC(=O)[C@H](Cc2c[nH]c4ccccc24)NC(=O)[C@H](CCCCN)NC(=O)[C@H](Cc2c[nH]cn2)NC(=O)[C@H]([C@@H](C)O)NC(=O)[C@H](CCCNC(=N)N)NC(=O)[C@H](CO)NC3=O)NC(=O)[C@H](CCCCN)NC(=O)[C@H](CC(=O)O)NC(=O)[C@H](CC(N)=O)NC(=O)[C@H](CC(=O)O)NC(=O)[C@@H]2CCCN2C1=O [compound 461] (H-DCLGFWRKCIPDNDKCCRPNLVCSRTHKWCKY[1Nal]F-NH2; disulfide 2-17, 9-23, 16-30)
- IC50 [1]: > 5000 nM
- IC50 [2]: 50 nM
- IC50 [3]: 100 nM

SMILES: CSCC[C@@H]1NC(=O)[C@H](Cc2ccccc2)NC(=O)CNC(=O)[C@H](CC(C)C)NC(=O)[C@@H](NC(=O)[C@@H](N)CC(=O)O)CSSC[C@@H]2NC(=O)[C@@H]3CSSC[C@@H](C(=O)N[C@@H](CCCCN)C(=O)N[C@@H](Cc4ccc(O)cc4)C(=O)N[C@@H](Cc4cccc5ccccc45)C(=O)N[C@@H](Cc4ccccc4)C(N)=O)NC(=O)[C@H](Cc4c[nH]c5ccccc45)NC(=O)[C@H](CCCCN)NC(=O)[C@H](Cc4c[nH]cn4)NC(=O)[C@H]([C@@H](C)O)NC(=O)[C@H](CCCNC(=N)N)NC(=O)[C@H](CO)NC(=O)[C@H](CSSC[C@H](NC(=O)[C@H](CCCCN)NC(=O)[C@H](CCCNC(=N)N)NC1=O)C(=O)N[C@@H](Cc1cccc4ccccc14)C(=O)N1CCC[C@H]1C(=O)N[C@@H](CC(=O)O)C(=O)N[C@@H](CC(N)=O)C(=O)N[C@@H](CC(=O)O)C(=O)N[C@@H](CCCCN)C(=O)N3)NC(=O)[C@H](C(C)C)NC(=O)[C@H](CC(C)C)NC(=O)[C@H](CC(N)=O)NC(=O)[C@@H]1CCCN1C(=O)[C@H](CCCNC(=N)N)NC2=O [compound 462]
- IC50 [1]: > 5000 nM
- IC50 [2]: 70 nM
- IC50 [3]: 110 nM
